Measured values reported in patent US5698529A, “Chemotherapeutic compositions” (Supratek Pharma, Inc., priority 1996, dated 1997).
Values after ≈ are worked out from the molar mass of the structure shown. Read-outs that look alike come from different tables or passages of the source.

Columns and labels:
SKVLB cells = assay: cells; format: cell-based; conditions: Homo sapiens
Source text: (§1) The antineoplastic agent vinblastine is incorporated into the block copolymer mixture described in Example 3.
(§2) The antineoplastic agent mitomycin C is incorporated into the block copolymer mixture described in Example 3.
(§3) The antineoplastic agent methotrexate is incorporated into the block copolymer mixture described in Example 3.
(§4) The antineoplastic agent daunorubicin is incorporated into the block copolymer mixture described in Example 3.

SKVO3 cells = assay: cells; format: cell-based; conditions: Homo sapiens
Source text: as §1, §2, §3, §4

[1] = SKVO3, drug-sensitive, read-out: IC50

Row | Structure (SMILES) | IC50 (SKVLB cells) | IC50 (SKVO3 cells; [1]) | IC50 (SKVO3 cells)
1 | CC[C@]1(O)C[C@@H]2CN(CCc3c([nH]c4ccccc34)[C@@](C(=O)OC)(c3cc4c(cc3OC)N(C)[C@H]3[C@@](O)(C(=O)OC)[C@H](OC(C)=O)[C@]5(CC)C=CCN6CC[C@]43[C@@H]65)C2)C1 [free vinblastine, vinblastine] | 0.615 µg/mL (≈ 0.758 µM) | 0.095 µg/mL (≈ 0.117 µM) | 
2 | CO[C@@]12[C@H](COC(N)=O)C3=C(C(=O)C(C)=C(N)C3=O)N1C[C@@H]1N[C@@H]12 [free mitomycin, mitomycin C] | 1.12 µg/mL (≈ 3.35 µM) |  | 0.32 µg/mL (≈ 0.957 µM)
3 | CN(Cc1cnc2nc(N)nc(N)c2n1)c1ccc(C(=O)N[C@@H](CCC(=O)O)C(=O)O)cc1 [free methotrexate, methotrexate] |  | 1.09 µg/mL (≈ 2.4 µM) | 
